For orientation: IC50 means the concentration that inhibits the measured activity by half.

The test system of one data set is HUVEC cells. The settings on record: human.
Data set [1] deals with Plasmodium falciparum 3D7 Strain. Description: Antiplasmodial SYBR Green I assay, chloroquine-sensitive 3D7 strain. It counts as cell-based.
The test system of data set [2] is Plasmodium falciparum W2 Strain. In words: microbe, parasite or virus in culture. In kind it is cell-based.

Take `O=C(COc1ccccc1)N1CCC(N(C(=O)COc2ccccc2)c2ccccc2)CC1` [Compound 10]: in the data set with HUVEC cells, the “CC50 ± SD, HUVEC Cells” value was >100 nM. Further, the “Selectivity Index (3D7) =CC50/IC50” value in data set [1] (CC50 HUVEC / IC50 3D7) is >8.9. Moreover, the “Selectivity Index (W2) =CC50/IC50” value in data set [2] (CC50 HUVEC / IC50 W2) was >5.3.

On to `CCN(CC)CCCC(C)Nc1ccnc2cc(Cl)ccc12` (centres unmarked) [CQ, chloroquine, reference compound], for which the IC50 in data set [1] (Plasmodium falciparum, chloroquine-sensitive 3D7, 48 h incubation, SYBR Green I, read-out: IC50 ± SD, Plasmodium falciparum 3D7 Strain) amounted to 22.4 ± 3.24 nM; in data set [2] (Plasmodium falciparum, W2, 48 h, read-out: IC50 ± SD, Plasmodium falciparum W2 Strain) it was 134 ± 32.3 nM.

Source of the values: publication PMC7024169, “Synthesis and Antimalarial Activity of 1,4-Disubstituted Piperidine Derivatives” (Molecules, 2020).
